PubChem BioAssay AID328 (DTP/NCI, 2004)
Where “and” joins values, the source holds several entries; their conditions need not be identical. Equal values may be shown once. Toxic doses and inconclusive results are not listed. The calls were made as follows: active = survival T/C of 150% or more; inactive = T/C below 125% in these data.

Test system: BDF1 mice, P388 leukemia ip, median survival T/C
Assay: NCI In Vivo Anticancer Drug Screen. Data for tumor model P388 Leukemia (intraperitoneal) in B6D2F1 (BDF1) mice
Conditions: endpoint: median survival time, higher = longer survival
How it was run: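 Read-out is survival of treated animals expressed relative to the vehicle group, as a T/C ratio.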

[1] = dose: 100.0 mg/kg/injection, schedule: Q04DX003 (ip), vehicle: saline with Tween-80
[2] = dose: 400.0 mg/kg/injection, schedule: Q04DX003 (ip), vehicle: saline with Tween-80
[3] = dose: 50.0 mg/kg/injection, schedule: Q01DX009 (ip), vehicle: saline with Tween-80
[4] = dose: 100.0 mg/kg/injection, schedule: Q01DX009 (ip), vehicle: saline with Tween-80
[5] = dose: 3.12 mg/kg/injection, schedule: Q01DX009 (ip), vehicle: saline with Tween-80
[6] = dose: 6.25 mg/kg/injection, schedule: Q01DX009 (ip), vehicle: saline with Tween-80
[7] = dose: 12.5 mg/kg/injection, schedule: Q01DX009 (ip), vehicle: saline with Tween-80
[8] = dose: 25.0 mg/kg/injection, schedule: Q01DX009 (ip), vehicle: saline with Tween-80
[9] = dose: 25.0 mg/kg/injection, schedule: Q04DX003 (ip), vehicle: saline with Tween-80
[10] = dose: 50.0 mg/kg/injection, schedule: Q04DX003 (ip), vehicle: saline with Tween-80
[11] = dose: 50.0 mg/kg/injection, schedule: Q01DX009 (ip), vehicle: Klucel (hydroxypropylcellulose) (HPC)
[12] = dose: 100.0 mg/kg/injection, schedule: Q04DX003 (ip), vehicle: Klucel (hydroxypropylcellulose) (HPC)

Measured: T/C

O=[N+]([O-])c1ccc(S(=O)(=O)Nc2ccccc2-c2ccccc2)cc1
inactive: [1] 96 % of control | dose: 200.0 mg/kg/injection, schedule: Q04DX003 (ip), vehicle: saline with Tween-80 96 % of control | [2] 100 % of control

CC(=O)N1N=C(N)SC1c1ccc(Cl)c(Cl)c1 (configuration not stated)
inactive: [3] 113 % of control | [4] 113 % of control

c1ccc(CCN2CCC3(CC2)COCc2ccccc23)cc1
inactive: dose: 25.0 mg/kg/injection, schedule: Q01DX001 (ip), vehicle: saline with Tween-80 104 % of control | dose: 50.0 mg/kg/injection, schedule: Q01DX001 (ip), vehicle: saline with Tween-80 90 % of control

Cc1ccc(NC(=O)OCCOc2ccc(-c3ccccc3)cc2)c([N+](=O)[O-])c1
inactive: dose: 12.5 mg/kg/injection, schedule: Q01DX009 (ip), vehicle: DMSO 100 % of control | dose: 25.0 mg/kg/injection, schedule: Q01DX009 (ip), vehicle: DMSO 119 % of control | dose: 50.0 mg/kg/injection, schedule: Q01DX009 (ip), vehicle: DMSO 102 % of control

CN1CCN(C(=O)c2ccc(Cl)c(Cl)c2)CC1
inactive: [5] 103 % of control | [6] 99 % of control | [7] 103 % of control | dose: 12.5 mg/kg/injection, schedule: Q04DX003 (ip), vehicle: saline with Tween-80 108 % of control | [8] 88 % of control | [9] 97 % of control | [3] 99 % of control | [10] 91 % of control | [4] 105 % of control | [1] 97 % of control

Cc1ccc(NO)c(C)c1
inactive: dose: 50.0 mg/kg/injection, schedule: Q01DX005 (ip), vehicle: saline with Tween-80 113 % of control | dose: 100.0 mg/kg/injection, schedule: Q01DX005 (ip), vehicle: saline with Tween-80 108 % of control

O=S1(=O)C(Cc2ccccc2)CCCN1c1ccccc1 (configuration not stated)
inactive: dose: 100.0 mg/kg/injection, schedule: Q04DX002 (ip), vehicle: saline with Tween-80 104 % of control | dose: 200.0 mg/kg/injection, schedule: Q04DX002 (ip), vehicle: saline with Tween-80 104 % of control | dose: 400.0 mg/kg/injection, schedule: Q04DX002 (ip), vehicle: saline with Tween-80 102 % of control

COc1ccc2c(C#N)cc3c4ccccc4ncc3c2c1
inactive: dose: 12.5 mg/kg/injection, schedule: Q01DX009 (ip), vehicle: distilled water + Tween-80 107 % of control | dose: 25.0 mg/kg/injection, schedule: Q01DX009 (ip), vehicle: distilled water + Tween-80 113 % of control | dose: 50.0 mg/kg/injection, schedule: Q01DX009 (ip), vehicle: distilled water + Tween-80 88 % of control | dose: 100.0 mg/kg/injection, schedule: Q01DX009 (ip), vehicle: distilled water + Tween-80 88 % of control

COc1ccc(CN2CCCN(Cc3ccc(OC)cc3)S2)cc1
inactive: [3] 92 % of control | [4] 101 % of control | dose: 200.0 mg/kg/injection, schedule: Q01DX009 (ip), vehicle: saline with Tween-80 110 % of control

O=C1OC(c2ccc([N+](=O)[O-])cc2)Sc2ccccc21 (configuration not stated)
inactive: [11] 86 % of control | dose: 100.0 mg/kg/injection, schedule: Q01DX001 (ip), vehicle: Klucel (hydroxypropylcellulose) (HPC) 100 % of control | [12] 100 % of control | dose: 200.0 mg/kg/injection, schedule: Q01DX001 (ip), vehicle: Klucel (hydroxypropylcellulose) (HPC) 100 % of control | dose: 200.0 mg/kg/injection, schedule: Q01DX009 (ip), vehicle: Klucel (hydroxypropylcellulose) (HPC) 100 % of control | dose: 200.0 mg/kg/injection, schedule: Q04DX003 (ip), vehicle: Klucel (hydroxypropylcellulose) (HPC) 104 % of control | dose: 400.0 mg/kg/injection, schedule: Q01DX001 (ip), vehicle: Klucel (hydroxypropylcellulose) (HPC) 100 % of control | dose: 400.0 mg/kg/injection, schedule: Q04DX003 (ip), vehicle: Klucel (hydroxypropylcellulose) (HPC) 109 % of control

COC(=O)c1ccc(CBr)cc1
inactive: [8] 103 % of control | [9] 100 % of control | [3] 92 % of control | [10] 91 % of control | [1] 100 % of control

NC(CCSCc1ccc(N(CCCl)CCCl)cc1)C(=O)O (configuration not stated)
inactive: [11] 89 % of control | dose: 150.0 mg/kg/injection, schedule: Q04DX003 (ip), vehicle: Klucel (hydroxypropylcellulose) (HPC) 123 % of control | dose: 375.0 micrograms/kg/injection, schedule: Q04DX003 (ip), vehicle: saline with Tween-80 120 % of control
active: dose: 2.0 mg/kg/injection, schedule: Q01DX009 (ip), vehicle: Klucel (hydroxypropylcellulose) (HPC) 163 % of control | dose: 3.0 mg/kg/injection, schedule: Q01DX009 (ip), vehicle: Klucel (hydroxypropylcellulose) (HPC) 186 % of control | dose: 4.5 mg/kg/injection, schedule: Q01DX009 (ip), vehicle: Klucel (hydroxypropylcellulose) (HPC) 190 % of control | dose: 5.0 mg/kg/injection, schedule: Q04DX003 (ip), vehicle: Klucel (hydroxypropylcellulose) (HPC) 169 % of control | dose: 7.0 mg/kg/injection, schedule: Q01DX009 (ip), vehicle: Klucel (hydroxypropylcellulose) (HPC) 183 % of control and 213 % of control | dose: 8.0 mg/kg/injection, schedule: Q04DX003 (ip), vehicle: Klucel (hydroxypropylcellulose) (HPC) 184 % of control | dose: 11.0 mg/kg/injection, schedule: Q01DX009 (ip), vehicle: Klucel (hydroxypropylcellulose) (HPC) 212 % of control | dose: 13.0 mg/kg/injection, schedule: Q04DX003 (ip), vehicle: Klucel (hydroxypropylcellulose) (HPC) 207 % of control | dose: 14.0 mg/kg/injection, schedule: Q04DX003 (ip), vehicle: alcohol 230 % of control | dose: 17.0 mg/kg/injection, schedule: Q01DX009 (ip), vehicle: Klucel (hydroxypropylcellulose) (HPC) 225 % of control and 272 % of control | dose: 20.0 mg/kg/injection, schedule: Q04DX003 (ip), vehicle: Klucel (hydroxypropylcellulose) (HPC) 230 % of control and 204 % of control | dose: 21.0 mg/kg/injection, schedule: Q04DX003 (ip), vehicle: alcohol 226 % of control | dose: 25.0 mg/kg/injection, schedule: Q01DX009 (ip), vehicle: Klucel (hydroxypropylcellulose) (HPC) 272 % of control | dose: 30.0 mg/kg/injection, schedule: Q04DX003 (ip), vehicle: Klucel (hydroxypropylcellulose) (HPC) 272 % of control | dose: 33.0 mg/kg/injection, schedule: Q04DX003 (ip), vehicle: saline with Tween-80 168 % of control and 213 % of control | dose: 37.0 mg/kg/injection, schedule: Q01DX009 (ip), vehicle: Klucel (hydroxypropylcellulose) (HPC) 272 % of control | dose: 45.0 mg/kg/injection, schedule: Q04DX003 (ip), vehicle: Klucel (hydroxypropylcellulose) (HPC) 268 % of control | [10] 227 % of control and 272 % of control | dose: 67.0 mg/kg/injection, schedule: Q04DX003 (ip), vehicle: Klucel (hydroxypropylcellulose) (HPC) 230 % of control | dose: 75.0 mg/kg/injection, schedule: Q04DX003 (ip), vehicle: saline with Tween-80 272 % of control and 190 % of control | [12] 230 % of control and 250 % of control

CC(=O)n1cc(F)c(=O)[nH]c1=O
inactive: dose: 0.57 mg/kg/injection, schedule: Q01DX009 (ip), vehicle: saline 116 % of control | dose: 0.99 mg/kg/injection, schedule: Q01DX009 (ip), vehicle: saline 113 % of control | dose: 1.3 mg/kg/injection, schedule: Q01DX009 (ip), vehicle: saline 122 % of control | dose: 5.0 mg/kg/injection, schedule: Q04DX003 (ip), vehicle: saline 122 % of control | dose: 25.0 mg/kg/injection, schedule: Q04DX003 (ip), vehicle: saline 122 % of control | [3] 86 % of control | dose: 100.0 mg/kg/injection, schedule: Q04DX003 (ip), vehicle: other 108 % of control | dose: 150.0 mg/kg/injection, schedule: Q04DX003 (ip), vehicle: other 100 % of control | [2] 90 % of control
active: dose: 2.0 mg/kg/injection, schedule: Q01DX009 (ip), vehicle: saline 165 % of control | [5] 150 % of control | [6] 160 % of control and 165 % of control | dose: 7.2 mg/kg/injection, schedule: Q01DX009 (ip), vehicle: saline with Tween-80 166 % of control | [7] 178 % of control and 215 % of control | [8] 235 % of control and 195 % of control | [10] 155 % of control | dose: 50.0 mg/kg/injection, schedule: Q04DX003 (ip), vehicle: saline 150 % of control | dose: 100.0 mg/kg/injection, schedule: Q04DX003 (ip), vehicle: saline 181 % of control
